In ChEMBL document CHEMBL1139129, “Bis-styrylpyridine and bis-styrylbenzene derivatives as inhibitors for Abeta fibril formation” (Bioorg Med Chem Lett, 2007):

How the values were obtained:
[1] = target: Amyloid-beta precursor protein (Homo sapiens, UniProt P05067); assay: Inhibition of amyloid beta 42 fibril formation by thioflavin T assay
[2] = test system: HT-22; assay: Cytotoxicity against HT22 cells assessed as cell viability at 10 uM by MTT assay relative to control; type: functional, Homo sapiens; conditions: Mus musculus, read-out: Activity

Amyloid-beta precursor protein, sequence (P05067 whole entry): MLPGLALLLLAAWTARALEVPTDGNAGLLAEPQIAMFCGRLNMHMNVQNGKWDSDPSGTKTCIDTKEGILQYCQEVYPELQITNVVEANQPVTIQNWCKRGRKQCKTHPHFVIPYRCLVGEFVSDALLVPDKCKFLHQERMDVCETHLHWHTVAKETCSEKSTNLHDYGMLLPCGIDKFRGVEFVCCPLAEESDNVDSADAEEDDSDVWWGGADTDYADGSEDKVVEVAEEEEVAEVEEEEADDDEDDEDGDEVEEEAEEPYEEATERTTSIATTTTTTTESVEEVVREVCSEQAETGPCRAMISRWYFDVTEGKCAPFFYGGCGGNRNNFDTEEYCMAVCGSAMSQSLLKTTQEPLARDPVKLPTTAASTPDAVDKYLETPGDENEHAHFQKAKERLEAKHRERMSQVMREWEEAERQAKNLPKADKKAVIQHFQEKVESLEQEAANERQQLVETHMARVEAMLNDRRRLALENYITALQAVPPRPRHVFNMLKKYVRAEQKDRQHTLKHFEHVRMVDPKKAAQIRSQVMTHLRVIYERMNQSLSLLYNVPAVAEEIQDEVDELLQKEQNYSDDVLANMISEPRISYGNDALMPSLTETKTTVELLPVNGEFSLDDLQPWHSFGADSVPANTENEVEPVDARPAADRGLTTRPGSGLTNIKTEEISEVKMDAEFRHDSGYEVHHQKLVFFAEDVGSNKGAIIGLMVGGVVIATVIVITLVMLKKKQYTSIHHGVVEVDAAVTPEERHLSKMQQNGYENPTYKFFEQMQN

| Structure (SMILES) | IC50 [1] [µM] | viability at 10 µM [2] [%] |
| --- | --- | --- |
| COc1ccc(/C=C/c2cc(Br)cc(/C=C/c3ccc(OC)c(OC)c3)c2)cc1OC | 20 |  |
| COc1cc(/C=C/c2cc(Br)cc(/C=C/c3ccc(O)c(OC)c3)c2)ccc1O | 0.1 |  |
| COc1cc(/C=C/c2cc(Cl)cc(/C=C/c3ccc(O)c(OC)c3)n2)ccc1O | 1.1 |  |
| CNc1ccc(/C=C/c2cccc(/C=C/c3ccc(NC)c(OC)c3)n2)cc1OC | 0.5 |  |
| CNc1ccc(/C=C/c2cccc(/C=C/c3ccc(NC)c(O)c3)n2)cc1O | 0.9 |  |
| COc1cc(/C=C/c2ccc(O)c(OC)c2)nc(/C=C/c2ccc(O)c(OC)c2)c1 | 1.7 |  |
| COc1cc(/C=C/c2cc(C)cc(/C=C/c3ccc(O)c(OC)c3)n2)ccc1O | 1.4 |  |
| COc1cc(/C=C/c2cc(N(C)C)cc(/C=C/c3ccc(O)c(OC)c3)n2)ccc1O | 1.9 |  |
| COc1cc(/C=C/c2cccc(/C=C/c3ccc(N)c(OC)c3)c2)ccc1N | 0.6 |  |
| CNc1ccc(/C=C/c2cccc(/C=C/c3ccc(NC)c(OC)c3)c2)cc1OC [listing 1 of 2 here] | 0.6 |  |
| COc1cc(/C=C/c2cccc(/C=C/c3ccc(N(C)C)c(OC)c3)c2)ccc1N(C)C | 1 |  |
| CN(C)c1ccc(/C=C/c2cccc(/C=C/c3ccc(N(C)C)c(O)c3)c2)cc1O | 0.7 |  |
| COc1ccc(/C=C/c2cccc(/C=C/c3ccc(OC)c(N)c3)c2)cc1N | 0.3 |  |
| CNc1cc(/C=C/c2cccc(/C=C/c3ccc(O)c(NC)c3)n2)ccc1O | 0.5 |  |
| CN(C)c1cc(/C=C/c2cccc(/C=C/c3ccc(O)c(N(C)C)c3)c2)ccc1O | 2.7 |  |
| COc1cc(/C=C/c2cccc(/C=C/c3ccc(N4CCCC4)c(OC)c3)c2)ccc1N1CCCC1 | > 20 |  |
| COc1cc(/C=C/c2cccc(/C=C/c3ccc(N(C)C)c(OC)c3)n2)ccc1N(C)C | 0.8 |  |
| COc1cc(/C=C/c2cc(Br)cc(/C=C/c3ccc(N)c(OC)c3)c2)ccc1N | 1.8 |  |
| CN(C)c1cc(/C=C/c2cccc(/C=C/c3ccc(O)c(N(C)C)c3)n2)ccc1O | 2.3 |  |
| COc1cc(/C=C/c2cc(Br)cc(/C=C/c3ccc(O)c(OC)c3)n2)ccc1O | 1.1 |  |
| CNc1ccc(/C=C/c2cccc(/C=C/c3ccc(NC)c(OC)c3)c2)cc1OC [listing 2 of 2 here] |  | 150 |
| CN(C)c1ccc2cc3ccc(N(C)C)cc3nc2c1 [ACRIDINE ORANGE] | 0.6 |  |
| COc1cc(/C=C/C(=O)CC(=O)/C=C/c2ccc(O)c(OC)c2)ccc1O [CURCUMIN] |  | 116 |

The next lines start with results.

| IC50 [1] [µM] | Structure (SMILES) | viability at 10 µM [2] [%] |
| --- | --- | --- |
| > 20 | CN(C)c1ccc(/C=C/c2cccc(/C=C/c3ccc(N(C)C)cc3)c2)cc1 |  |
| > 20 | CN(C)c1ccc(/C=C/c2cc(Br)cc(/C=C/c3ccc(N(C)C)cc3)c2)cc1 |  |
| > 20 | CN(C)c1ccc(/C=C/c2cc(I)cc(/C=C/c3ccc(N(C)C)cc3)c2)cc1 |  |
| 0.8 | COc1cc(/C=C/c2cccc(/C=C/c3ccc(O)c(OC)c3)n2)ccc1O |  |
| 0.7 | COc1cc(/C=C/c2cccc(/C=C/c3ccc(N)c(OC)c3)n2)ccc1N |  |
| 0.9 | CN(C)c1ccc(/C=C/c2cccc(/C=C/c3ccc(N(C)C)c(O)c3)n2)cc1O |  |
| 1.1 | COc1cc(/C=C/c2cc(Br)cc(/C=C/c3ccc(N)c(OC)c3)n2)ccc1N |  |
| 1.1 | CNc1cc(/C=C/c2cccc(/C=C/c3ccc(OC)c(NC)c3)n2)ccc1OC |  |
| 1.3 | CNc1cc(/C=C/c2cccc(/C=C/c3ccc(OC)c(NC)c3)c2)ccc1OC |  |
| 1.1 | COc1ccc(/C=C/c2cccc(/C=C/c3ccc(OC)c(N(C)C)c3)c2)cc1N(C)C |  |
| 0.6 | COc1ccc(/C=C/c2cccc(/C=C/c3ccc(OC)c(N)c3)n2)cc1N |  |
| 0.9 | COc1ccc(/C=C/c2cccc(/C=C/c3ccc(OC)c(N(C)C)c3)n2)cc1N(C)C |  |
| 8 | O=C(O)c1cc(/C=C/c2ccc(/C=C/c3ccc(O)c(C(=O)O)c3)c(I)c2)ccc1O |  |
